# From ChEMBL document CHEMBL5653631, “A Potent and Selective ULK1 Inhibitor Suppresses Autophagy and Sensitizes Cancer Cells to Nutrient Stress” (iScience, 2018)
# Legend:
# [1] = biological target: T1, Serine/threonine-protein kinase 17B (Homo sapiens) (UniProt O94768); test: Inhibition of human recombinant DRAK2 at 40 nM in presence of ATP by radiometric assay relative to control
# T1 sequence (whole entry): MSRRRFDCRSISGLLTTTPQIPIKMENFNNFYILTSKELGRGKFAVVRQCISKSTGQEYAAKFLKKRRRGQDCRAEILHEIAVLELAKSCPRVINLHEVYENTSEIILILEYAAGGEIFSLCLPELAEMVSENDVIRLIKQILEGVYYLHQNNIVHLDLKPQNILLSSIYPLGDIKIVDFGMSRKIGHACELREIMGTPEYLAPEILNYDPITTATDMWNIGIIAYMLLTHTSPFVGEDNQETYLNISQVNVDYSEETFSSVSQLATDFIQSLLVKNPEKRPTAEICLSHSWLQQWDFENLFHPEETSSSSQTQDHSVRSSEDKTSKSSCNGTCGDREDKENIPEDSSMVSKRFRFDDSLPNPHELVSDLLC
# [2] = biological target: Serine/threonine-protein kinase PAK 6 (Homo sapiens) (UniProt Q9NQU5); test: Inhibition of human recombinant PAK6 at 40 nM in presence of ATP by radiometric assay relative to control
# [3] = biological target: Ribosomal protein S6 kinase alpha-2 (Homo sapiens) (UniProt Q15349); test: Inhibition of human recombinant RSK3 at 40 nM in presence of ATP by radiometric assay relative to control
# [4] = biological target: Serine/threonine-protein kinase/endoribonuclease IRE1 (Homo sapiens) (UniProt O75460); test: Inhibition of human recombinant IRE1 at 40 nM related to control ULK1
# [5] = biological target: T2, Serine/threonine-protein kinase ULK3 (Homo sapiens) (UniProt Q6PHR2); test: Inhibition of human recombinant ULK3 at 40 nM related to control ULK1
# T2 sequence (whole entry): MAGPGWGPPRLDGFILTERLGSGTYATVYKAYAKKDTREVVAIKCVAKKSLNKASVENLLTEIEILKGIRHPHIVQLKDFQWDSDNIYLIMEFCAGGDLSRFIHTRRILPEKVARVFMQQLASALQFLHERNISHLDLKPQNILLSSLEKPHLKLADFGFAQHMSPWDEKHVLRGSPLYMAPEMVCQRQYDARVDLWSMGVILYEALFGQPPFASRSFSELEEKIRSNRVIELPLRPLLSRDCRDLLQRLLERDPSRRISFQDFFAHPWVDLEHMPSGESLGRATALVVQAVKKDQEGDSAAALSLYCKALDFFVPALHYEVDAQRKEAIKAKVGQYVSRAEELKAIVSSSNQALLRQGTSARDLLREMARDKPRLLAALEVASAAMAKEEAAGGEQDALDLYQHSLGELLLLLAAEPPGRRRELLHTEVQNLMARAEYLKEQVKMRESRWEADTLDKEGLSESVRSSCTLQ
# [6] = biological target: Serine/threonine-protein kinase MRCK alpha (Homo sapiens) (UniProt Q5VT25); test: Inhibition of human recombinant MRCKa at 500 nM in presence of ATP by radiometric assay relative to control
# [7] = biological target: Tau-tubulin kinase 2 (Homo sapiens) (UniProt Q6IQ55); test: Inhibition of human recombinant TTBK2 at 500 nM in presence of ATP by radiometric assay relative to control
# [8] = biological target: Tyrosine-protein kinase Blk (Homo sapiens) (UniProt P51451); test: Inhibition of human recombinant BLK at 500 nM related to control ULK1
# [9] = biological target: Casein kinase I isoform gamma-1 (Homo sapiens) (UniProt Q9HCP0); test: Inhibition of human recombinant CK1g1 at 500 nM related to control ULK1
# [10] = biological target: Tyrosine-protein kinase FRK (Homo sapiens) (UniProt P42685); test: Inhibition of human recombinant FRK at 500 nM related to control ULK1
# [11] = biological target: Rho-associated protein kinase 1 (Homo sapiens) (UniProt Q13464); test: Inhibition of human recombinant ROCK1 at 500 nM related to control ULK1
# [12] = biological target: Serine/threonine-protein kinase 32C (Homo sapiens) (UniProt Q86UX6); test: Inhibition of human recombinant YANK3 at 500 nM related to control ULK1
# [13] = biological target: Activin receptor type-2A (Homo sapiens) (UniProt P27037); test: Inhibition of human recombinant ACTR2 at 500 nM related to control ULK1
# [14] = biological target: Protein kinase C iota type (Homo sapiens) (UniProt P41743); test: Inhibition of human recombinant PKCi at 500 nM in presence of ATP by radiometric assay relative to control
# [15] = biological target: Tyrosine-protein kinase FRK (Homo sapiens) (UniProt P42685); test: Inhibition of human recombinant FRK at 15 nM in presence of ATP by radiometric assay relative to control
# [16] = biological target: T3, NUAK family SNF1-like kinase 1 (Homo sapiens) (UniProt O60285); test: Inhibition of human recombinant NuaK1 at 15 nM in presence of ATP by radiometric assay relative to control
# T3 sequence (whole entry): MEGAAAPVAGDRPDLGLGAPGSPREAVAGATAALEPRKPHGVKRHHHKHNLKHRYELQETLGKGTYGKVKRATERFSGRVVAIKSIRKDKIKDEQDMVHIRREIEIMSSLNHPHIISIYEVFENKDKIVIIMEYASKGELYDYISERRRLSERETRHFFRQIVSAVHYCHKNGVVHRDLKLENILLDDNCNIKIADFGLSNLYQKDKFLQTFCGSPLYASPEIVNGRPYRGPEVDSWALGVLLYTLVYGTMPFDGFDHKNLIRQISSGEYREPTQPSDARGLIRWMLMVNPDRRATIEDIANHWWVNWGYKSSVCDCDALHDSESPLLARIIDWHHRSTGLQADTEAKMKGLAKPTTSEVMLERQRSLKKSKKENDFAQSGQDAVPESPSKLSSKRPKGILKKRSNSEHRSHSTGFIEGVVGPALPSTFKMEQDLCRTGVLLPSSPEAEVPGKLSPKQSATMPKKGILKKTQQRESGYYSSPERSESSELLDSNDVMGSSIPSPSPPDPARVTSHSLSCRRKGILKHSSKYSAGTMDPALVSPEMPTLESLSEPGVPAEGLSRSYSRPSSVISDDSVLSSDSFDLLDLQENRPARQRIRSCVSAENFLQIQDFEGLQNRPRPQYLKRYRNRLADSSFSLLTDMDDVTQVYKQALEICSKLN
# [17] = biological target: Protein kinase C alpha type (Homo sapiens) (UniProt P17252); test: Inhibition of human recombinant PKCa at 15 nM in presence of ATP by radiometric assay relative to control
# [18] = biological target: Receptor-type tyrosine-protein kinase FLT3 (Homo sapiens) (UniProt P36888); test: Inhibition of human recombinant FLT3 at 15 nM related to control ULK1
# [19] = biological target: SRSF protein kinase 2 (Homo sapiens) (UniProt P78362); test: Inhibition of human recombinant SRPK2 at 15 nM related to control ULK1
compound,measurement,setting,value
O=C(N[C@@H](C1CC1)C(F)(F)F)c1cc(-c2cnn3cc(-c4ccc(F)cc4)cnc23)cs1,inhibition,[1],39%
same,inhibition,[2],7%
same,inhibition,[3],0%
same,fold change (FC),[4],0
same,fold change (FC),[5],0.07
CNC(=O)c1ccccc1Oc1nc(Nc2cc(OC)c(OC)c(OC)c2)ncc1Br,inhibition,[6],7%
same,inhibition,[7],6%
same,fold change (FC),[8],0.39
same,fold change (FC),[9],0
same,fold change (FC),[10],0.12
same,fold change (FC),[11],0
same,fold change (FC),[12],0
same,fold change (FC),[13],0.04
same,inhibition,[14],0%
CC(C)[C@H](NC(=O)c1cc(-c2cnn3cc(-c4ccc(OCCN5CCCCC5)cc4)cnc23)cs1)C(F)(F)F,inhibition,[15],13%
same,inhibition,[16],27%
same,inhibition,[17],7%
same,fold change (FC),[18],0.77
same,fold change (FC),[19],0
